Here are results for eight compounds from ChEMBL document CHEMBL5518222, “Retro-Inverso Collagen Modulator Peptide Derived from Serpin A1 with Enhanced Stability and Activity In Vitro” (J Med Chem, 2024).

Active and inactive are the calls of the source. No cut-off for these calls is given here. Peptide text beside a SMILES is read from it. * marks the point of attachment. Palmitoyl = CCCCCCCCCCCCCCCC(=O)*

In series [1] the target is T1, Neutrophil elastase (Homo sapiens) (UniProt P08246).
T1 sequence (whole entry): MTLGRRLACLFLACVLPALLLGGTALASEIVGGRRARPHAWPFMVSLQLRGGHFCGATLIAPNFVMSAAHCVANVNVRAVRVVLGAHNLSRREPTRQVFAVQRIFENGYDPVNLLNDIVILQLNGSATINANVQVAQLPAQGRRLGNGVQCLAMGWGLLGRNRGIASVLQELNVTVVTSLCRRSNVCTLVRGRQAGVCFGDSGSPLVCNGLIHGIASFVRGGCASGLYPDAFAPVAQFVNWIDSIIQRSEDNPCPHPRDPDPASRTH
Description: Inhibition of neutrophil elastase (unknown origin).

For series [2], the system named is NHDF. As to the kind of experiment: Cytotoxicity against neonatal HDF cells assessed as reduction in cell viability incubated for 72 hrs by MTS assay. The note with it: human. The series is classed as toxicity, cell-based. (Tetrazolium assays rely on reduction of a dye to a coloured formazan, in cell work by metabolically active cells.)
Series [3] concerns NHDF. As to the kind of experiment: Upregulation of collagen level in neonatal HDF cell lysate at 20 uM incubated for 72 hrs by Western blot analysis. Format: functional, subcellular. As to conditions: Homo sapiens. For orientation: A western blot detects proteins with antibodies after separation by electrophoresis.
Series [4] in a line: Stability of compound in human skin homogenate assessed as dermal protease mediated stability by measuring compound remaining measured after 24 hrs by HPLC-MS/MS analysis. As to conditions: read-out: Stability. Format: ADME, tissue-based, Skin of body.
The test system of series [5] is NHDF. As to the kind of experiment: Inhibition of cell invasion in neonatal HDF cells assessed as decrease in number of migrated cells in acceptor chamber at 20 uM incubated for 72 hrs by Boyden chamber invasion assay. Format: functional, cell-based. The note with it: Homo sapiens.
The target of series [6] is Matrix metalloproteinase-9 (Homo sapiens) (UniProt P14780). Description: Inhibition of MMP-9 (unknown origin).
Matrix metalloproteinase-9 (Homo sapiens), sequence (P14780 whole entry): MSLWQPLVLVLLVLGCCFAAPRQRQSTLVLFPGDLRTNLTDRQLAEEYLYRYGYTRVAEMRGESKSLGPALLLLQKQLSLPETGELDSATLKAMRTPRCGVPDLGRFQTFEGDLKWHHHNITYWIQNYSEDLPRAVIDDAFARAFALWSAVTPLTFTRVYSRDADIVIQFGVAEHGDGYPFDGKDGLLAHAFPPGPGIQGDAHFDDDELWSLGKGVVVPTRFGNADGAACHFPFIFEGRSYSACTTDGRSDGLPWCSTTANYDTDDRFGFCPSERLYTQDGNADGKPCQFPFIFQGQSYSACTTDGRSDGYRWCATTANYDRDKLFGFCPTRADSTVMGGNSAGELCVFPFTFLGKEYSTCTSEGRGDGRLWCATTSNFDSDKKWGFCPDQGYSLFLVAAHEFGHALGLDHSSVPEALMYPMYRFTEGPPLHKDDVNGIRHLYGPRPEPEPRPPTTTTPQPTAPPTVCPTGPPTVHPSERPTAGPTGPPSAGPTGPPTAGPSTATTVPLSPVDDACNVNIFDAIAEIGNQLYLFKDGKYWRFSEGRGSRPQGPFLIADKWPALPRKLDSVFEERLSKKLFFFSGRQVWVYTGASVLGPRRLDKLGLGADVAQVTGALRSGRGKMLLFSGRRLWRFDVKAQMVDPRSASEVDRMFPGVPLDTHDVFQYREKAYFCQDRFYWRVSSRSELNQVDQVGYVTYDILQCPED
For series [7], the system named is NHDF. Description: Downregulation of enzyme-digested low molecular weight collagen level in neonatal HDF cell conditioned media at 20 uM incubated for 48 hrs by Western blot analysis. Format: functional, cell-based. As to conditions: Homo sapiens.
The nature of series [8]: Upregulation of procollagen level in neonatal HDF cell conditioned media at 20 uM incubated for 72 hrs by Western blot analysis relative to control. Format: functional, Homo sapiens, NHDF.

`CC(=O)N[C@H](CC(N)=O)C(=O)N[C@@H](C(=O)N[C@@H](C(=O)N[C@H](CCCCN)C(N)=O)C(C)C)C(C)C`: the inhibition result in series [1] and in series [6] was “inactive” throughout. Further, the Activity entry in the series with NHDF [2] is given as “Non-Toxic”. In addition, the outcome with NHDF [3] was Active. In addition, in series [4], the remaining at 24 h was found to be 99.6%. Moreover, the inhibition result in the series with NHDF [5] was “Active”.

For `CC(=O)N[C@@H](CCCCN)C(=O)N[C@H](C(=O)N[C@H](C(=O)N[C@@H](CC(N)=O)C(N)=O)C(C)C)C(C)C`, the Activity result is reported as “Non-Toxic” in the series with NHDF [2] and 87% in series [8]. Also, the outcome with NHDF [7] and in the series with NHDF [3] was Active.

For `CC(=O)N[C@H](CCCCN)C(=O)N[C@@H](C(=O)N[C@@H](C(=O)N[C@H](CC(N)=O)C(N)=O)C(C)C)C(C)C`, the Activity result in the series on NHDF [2] is on record as “Non-Toxic”. Besides, in the series with NHDF [3], the outcome was Active.

On to `CSCC[C@H](NC(C)=O)C(=O)NCC(=O)N[C@@H](CCCCN)C(=O)N[C@H](C(N)=O)C(C)C` (Ac-MGKV-NH2), for which the Activity entry with NHDF [2] is recorded as “Non-Toxic”; in series [8], 116%. Further, the result in the series with NHDF [7] and with NHDF [3] was Active.

For `CC(=O)N1CCC[C@H]1C(=O)N[C@H](C(=O)N[C@@H](CCC(N)=O)C(=O)N[C@@H](CCCCN)C(N)=O)[C@@H](C)O` (Ac-PTQK-NH2), the Activity result in the series on NHDF [2] is “Non-Toxic”; in series [8] it was 31%. The result in the series on NHDF [7] and in the series on NHDF [3] was Active.

For the compound `CC(=O)N[C@H](C(=O)N[C@@H](CC(N)=O)C(=O)N1CCC[C@H]1C(=O)N[C@H](C(N)=O)[C@@H](C)O)C(C)C` (Ac-VNPT-NH2), the Activity entry with NHDF [2] is “Non-Toxic”; in series [8], 48%. For the same compound, the outcome with NHDF [7] and with NHDF [3] was Active.

As for `CCCCCCCCCCCCCCCC(=O)N[C@@H](CCCCN)C(=O)N[C@H](C(=O)N[C@H](C(=O)N[C@@H](CCCCN)C(=O)N[C@@H](CO)C(=O)O)[C@@H](C)O)[C@@H](C)O` (Palmitoyl-KTTKS-OH), in series [4], the remaining at 24 h came out at 36%.

As to Ac-MGKVVNPTQK-NH2, the result in the series on NHDF [7] and in the series with NHDF [3] was Active. The compound also returned an Activity in series [8] of 57%.
